Laboratory results published in EP4810498A1, “MEDICATION FOR TREATING SEVERE MALARIA AND SYNTHESIS METHOD THEREFOR” (Institute of Chinese Materia Medica, China Academy of …, priority 2023, dated 2025).

How the values were obtained:
[1] = 80% polyethylene glycol 400 solution, 40°C, dark
Method: 160.2 mg of Artesunazine was weighed and put into a penicillin bottle, 8 mL of a 80% polyethylene glycol 400 solution was added, and the Artesunazine was completely dissolved by ultrasonic treatment, resulting in about 20.25 mg/mL Artesunazine solution. Subsequently, the penicillin bottle filled with the solution was sealed, covered with aluminum foil paper for light avoidance treatment, and placed in a stability test box at 40°C; and 0.5 mL to 25 mL of the solution was sampled into volumetric flasks on days 0, 3, 7, and 10, respectively. After diluting with methanol and shaking well, the content of the Artesunazine was determined by an ultra performance liquid chromatography (UPLC) method.
The UPLC determination conditions for the Artesunazine are as follows: Instrument: ultra performance liquid chromatography Waters ACQUITY UPLC, chromatographic column: ACQUITY UPLC HSS T3 Column (100 Å, 1.8 µm, 2.1 mm×100 mm), detection wavelength: 295 nm, mobile phase: acetonitrile-0.1% phosphoric acid water (35:65), flow rate: 0.3 ml/min, column temperature: 30°C, sample room temperature: 25°C, injection volume: 3 µL. […]

[2] = system: Plasmodium berghei ANKA strain; assay: Recurrence rate of cerebral malaria model mice (blood smear); format: in vivo, C57BL/6J mice
Excerpt: (§1) Experimental study on the antimalarial activity of Artesunazine (Example Ia-1) in vitro and vivo. I. Protection of Artesunazine on mice infected by Plasmodium berghei ANKA strain. (I) Experimental materials: • 1. Animals: C57BL/6J, weighing 16-18 g, 10 in each group, 50 in total. • 2. Plasmodium strain: Plasmodium berghei ANKA strain, donated by Professor Zhao Ya of Air Force Medical University of the People's Liberation Army of China (The Fourth Military Medical University), was preserved in our laboratory by blood transmission or freezing. • 3. Drugs and preparation methods: Artesunazine and a positive control drug artesunate were dissolved in a mixed solvent of polyethylene glycol 400 (PEG400) and water (PEG400:water=4:1), serving as a preparation for immediate use. (II) Experimental methods • 1. Plasmodium resuscitation and passage: A Plasmodium berghei ANKA strain frozen in liquid nitrogen was taken out and placed in a water bath kettle at 37°C. After melting, it was immediately intraperitoneally inoculated into C57BL/6J mice (0.2 mL/mouse). When the infection rate of the breeding mice reached 15-30%, their eyeballs were removed and blood was collected in an anticoagulant tube. After shaking well, the blood was transmitted to offspring C57BL/6J mice with a 1 mL syringe at an injection dose of 0.2 mL/mouse. • 2. Plasmodium inoculation: C57BL/6J mice were weighed and fed adaptively. When the infection rate of offspring C57BL/6J mice reached 15-30%, the total number of red blood cells and the number of pRBCs were counted after their eyeballs were removed and blood was collected. The blood was injected intraperitoneally into model group C57BL/6J mice at an injection dose of 0.2 mL (including 1×10^7 pRBCs) per mouse, which was the 0th day (D0) of inoculation. • 3. Animal grouping: After inoculation, the experimental mice were randomly divided into 5 groups, including a model (M) group, high, medium and low dose Artesunazine groups (i.e., 40 mg/kg, 20 mg/kg, and 10 mg/kg Artesunazine), and an artesunate group (i.e., 15.6 mg/kg AS, clinically equivalent dose). The dosage of the medium dose Artesunazine group (20mg/kg Artesunazine) is equivalent to that of the artesunate group (15.6 mg/kg). There are 10 mice in each group, a total of 50 mice. • 4. Determination of survival rate From the 0th day of inoculation, the death of mice was observed every day for 28 consecutive days. Survival rate = (Number of surviving mice)/(Number of experimental mice) × 100% [formula] • 5. Determination of recurrence rate After inoculation, the mice were randomly divided into groups and administered via nasal drip for 3 h. After four consecutive days of administration, blood smear test began at D4. A small drop of blood was taken from the tail tip of a mouse and dropped onto a glass slide. The blood drop was pushed to one end at a certain angle with the edge of another glass slide to make a thin blood film with appropriate thickness. After the thin blood film was air-dried, it was fixed with methanol and placed until completely air-dried. After a Giemsa stain solution was diluted at a ratio of 1:9 for staining (completely covering the fixed thin blood film) for 20 min, the thin blood film was rinsed under a faucet, and the water on the surface of the film was quickly absorbed with filter paper. A drop of cedar oil was dropped onto a glass slide for examination under a 100x oil microscope to count the number of parasitized red blood cells contained in 1000 red blood cells. The mouse recurrence rate was calculated by the ratio of the number of mice with recurrence to the total number of mice. Recurrence rate = (Number of mice with recurrence)/(Number of experimental mice) × 100% [formula] • 6. RMCBS score determination A rapid mouse coma behavior scale (RMCBS) was used to evaluate the neurological function of experimental mice. […]

[3] = system: Plasmodium berghei ANKA strain; assay: Anal temperature of cerebral malaria model mice; format: in vivo, C57BL/6J mice; conditions: compared with the AS group (P<0.001)
Excerpt: Experimental study on the antimalarial activity of Artesunazine (Example Ia-1) in vitro and vivo. I. Protection of Artesunazine on mice infected by Plasmodium berghei ANKA strain. (I) Experimental materials: • 1. Animals: C57BL/6J, weighing 16-18 g, 10 in each group, 50 in total. • 2. Plasmodium strain: Plasmodium berghei ANKA strain, donated by Professor Zhao Ya of Air Force Medical University of the People's Liberation Army of China (The Fourth Military Medical University), was preserved in our laboratory by blood transmission or freezing. • 3. Drugs and preparation methods: Artesunazine and a positive control drug artesunate were dissolved in a mixed solvent of polyethylene glycol 400 (PEG400) and water (PEG400:water=4:1), serving as a preparation for immediate use. (II) Experimental methods • 1. Plasmodium resuscitation and passage: A Plasmodium berghei ANKA strain frozen in liquid nitrogen was taken out and placed in a water bath kettle at 37°C. After melting, it was immediately intraperitoneally inoculated into C57BL/6J mice (0.2 mL/mouse). […] When the infection rate of offspring C57BL/6J mice reached 15-30%, the total number of red blood cells and the number of pRBCs were counted after their eyeballs were removed and blood was collected. […] The mouse recurrence rate was calculated by the ratio of the number of mice with recurrence to the total number of mice. […]

[4] = system: Plasmodium berghei ANKA strain; assay: Body weight of cerebral malaria model mice; format: in vivo, C57BL/6J mice
Excerpt: as §1, with “After four consecutive days of administration, blood smear test began at D4. A small drop of blood was taken from the tail tip of a mouse and dropped onto a glass slide. The blood drop was pushed to one end at a certain angle with the edge of another glass slide to make a thin blood film with appropriate thickness. After the thin blood film was air-dried, it was fixed with methanol and placed until completely air-dried. After a Giemsa stain solution was diluted at a ratio of 1:9 for staining (completely covering the fixed thin blood film) for 20 min, the thin blood film was rinsed under a faucet, and the water on the surface of the film was quickly absorbed with filter paper. A drop of cedar oil was dropped onto a glass slide for examination under a 100x oil microscope to count the number of parasitized red blood cells contained in 1000 red blood cells.” left out, “mice.” for “mice. Recurrence rate = (Number of mice with recurrence)/(Number of experimental mice) × 100% [formula] • 6. RMCBS score determination A rapid mouse coma behavior scale (RMCBS) was used to evaluate the neurological function of experimental mice.”

[5] = system: Plasmodium berghei ANKA strain; assay: Rapid mouse coma behavior scale (RMCBS) score of cerebral malaria model mice; format: in vivo, C57BL/6J mice
Excerpt: as §1, with “After four consecutive days of administration, blood smear test began at D4. A small drop of blood was taken from the tail tip of a mouse and dropped onto a glass slide. The blood drop was pushed to one end at a certain angle with the edge of another glass slide to make a thin blood film with appropriate thickness. After the thin blood film was air-dried, it was fixed with methanol and placed until completely air-dried. After a Giemsa stain solution was diluted at a ratio of 1:9 for staining (completely covering the fixed thin blood film) for 20 min, the thin blood film was rinsed under a faucet, and the water on the surface of the film was quickly absorbed with filter paper. A drop of cedar oil was dropped onto a glass slide for examination under a 100x oil microscope to count the number of parasitized red blood cells contained in 1000 red blood cells.” left out, “mice.” for “mice. Recurrence rate = (Number of mice with recurrence)/(Number of experimental mice) × 100% [formula] • 6. RMCBS score determination A rapid mouse coma behavior scale (RMCBS) was used to evaluate the neurological function of experimental mice.”

[6] = system: Plasmodium berghei ANKA strain; assay: Survival rate of cerebral malaria model mice; format: in vivo, C57BL/6J mice; conditions: nasal drip, four consecutive days, 28 days of observation
Excerpt: as §1, with “After four consecutive days of administration, blood smear test began at D4. A small drop of blood was taken from the tail tip of a mouse and dropped onto a glass slide. The blood drop was pushed to one end at a certain angle with the edge of another glass slide to make a thin blood film with appropriate thickness. After the thin blood film was air-dried, it was fixed with methanol and placed until completely air-dried. After a Giemsa stain solution was diluted at a ratio of 1:9 for staining (completely covering the fixed thin blood film) for 20 min, the thin blood film was rinsed under a faucet, and the water on the surface of the film was quickly absorbed with filter paper. A drop of cedar oil was dropped onto a glass slide for examination under a 100x oil microscope to count the number of parasitized red blood cells contained in 1000 red blood cells.” left out, “mice.” for “mice. Recurrence rate = (Number of mice with recurrence)/(Number of experimental mice) × 100% [formula] • 6. RMCBS score determination A rapid mouse coma behavior scale (RMCBS) was used to evaluate the neurological function of experimental mice.”

[7] = system: Plasmodium falciparum 3D7; assay: SYBR Green assay, growth inhibition of Plasmodium falciparum cultured in vitro; format: cell-based; conditions: Plasmodium falciparum standard strain 3D7, cultured for 72 h; read-out: IC50
Method: Plasmodium falciparum in the ring stage was synchronized. Smearing was carried out and the infection rate was counted. The synchronized parasitized red blood cells, healthy red blood cells and mediums were matched in a reasonable ratio, resulting in an in vitro culture system of plasmodia (ring bodies, 2 to 4 hours-old) with a hematocrit of 2% and an infection rate of 1%. […] A1-A10 was paved with 25 µl of drugs (with 8 complex wells for each drug) and mixed evenly, and then diluted in multiple proportions (Ax-Hx). Except for A12-H12, 50 µL of a plasmodium culture solution was spread in all the other wells; and A12-H12 was spread with 50 µl of healthy red blood cells (in the medium with a hematocrit of 2%). […] 100 µl of a lysis buffer was added to each of the wells and put into a drawer to avoid light for 1 h.
In this experiment, SYBR Green assay was used to determine the median inhibitory concentration (IC50) value of the drug for treating Plasmodium falciparum 3D7. Nonlinear regression was used to calculate the value by means of software graphpad prism 8.0 (the value was equal to average value plus or minus standard error), and a four-parameter logistic fitting curve was used. Each value in the curve was equal to average value plus or minus standard error in eight biological repetitive experiments.

## Cc1nc(C)c(COC(=O)CCC(=O)OC2OC3OC4(C)CCC5C(C)CCC(C2C)C35OO4)nc1C [Compound Ia-1, (3R, 5aS, 6R, 9R, 10R, 12R, 12aR)-3,6,9-trimethyldecahydro-12h-3, 12-epoxy [1, 2] dioxopyran [4,3-i] isobenzopyran-10-yl ((3,5,6-trimethylpyrazine-2-yl)methyl) succinate]
[1]
  color of the solution: basically unchanged
[2]; 10 mg/kg
  Recurrence rate (%) D4: 10%
  Recurrence rate (%) D28: 100%
[2]; 10 mg/kg, D7
  Recurrence rate (%) D7: 80%
[2]; 20 mg/kg
  Recurrence rate (%) D4: 0%
  Recurrence rate (%) D28: 10%
[2]; 40 mg/kg
  Recurrence rate (%) D4: 0%
  Recurrence rate (%) D28: 10%
[3]; 20 mg/kg
  temperature: better maintained the temperature
[3]; 40 mg/kg
  temperature: better maintained the temperature
[4]; 10 mg/kg, at the end of the observation
  body weight: 16.66±0.45
[4]; 20 mg/kg, throughout the observation period
  body weight: no significant decrease
[4]; 40 mg/kg, throughout the observation period
  body weight: no significant decrease
[5]; 10 mg/kg
  RMCBS score: 18.40±0.48 points
[5]; 20 mg/kg
  RMCBS score: around 20 points
[5]; 40 mg/kg
  RMCBS score: around 20 points
[6]; 10 mg/kg Artesunazine (low dose)
  survival rate: 50%
[6]; 20 mg/kg Artesunazine (medium dose)
  survival rate: 90%
[6]; 40 mg/kg Artesunazine (high dose)
  survival rate: 100%
[7]
  IC50: 7.36 nM

## Cc1nc(C)c(COC(=O)CC(=O)OC2OC3OC4(C)CCC5C(C)CCC(C2C)C35OO4)nc1C [Compound Ia-2, (3R, 5aS, 6R, 9R, 10R, 12R, 12aR)-3,6,9-trimethyldecahydro-12h-3, 12-epoxy [1, 2] dioxopyran [4,3-i] isobenzopyran-10-yl ((3,5,6-trimethylpyrazine-2-yl)methyl) malonate]
[7]
  IC50: 12.5 nM

## Cc1nc(C)c(COC(=O)CCCC(=O)OC2OC3OC4(C)CCC5C(C)CCC(C2C)C35OO4)nc1C [Compound Ia-4, (3R, 5aS, 6R, 9R, 10R, 12R, 12aR)-3,6,9-trimethyldecahydro-12h-3, 12-epoxy [1, 2] dioxopyran [4,3-i] isobenzopyran-10-yl ((3,5,6-trimethylpyrazine-2-yl)methyl) glutarate]
[7]
  IC50: 33.9 nM

## Cc1nc(C)c(COC(=O)CCCCCC(=O)OC2OC3OC4(C)CCC5C(C)CCC(C2C)C35OO4)nc1C [Compound Ia-5, (3R, 5aS, 6R, 9R, 10R, 12R, 12aR)-3,6,9-trimethyldecahydro-12h-3, 12-epoxy [1, 2] dioxopyran [4,3-i] isobenzopyran-10-yl ((3,5,6-trimethylpyrazine-2-yl)methyl) pimelate]
[7]
  IC50: 2.95 nM

## Cc1nc(C)c(COC(=O)CCCCC(=O)OC2OC3OC4(C)CCC5C(C)CCC(C2C)C35OO4)nc1C [Compound Ia-6, (3R, 5aS, 6R, 9R, 10R, 12R, 12aR)-3,6,9-trimethyldecahydro-12h-3, 12-epoxy [1, 2] dioxopyran [4,3-i] isobenzopyran-10-yl ((3,5,6-trimethylpyrazine-2-yl)methyl) adipate]
[7]
  IC50: 14.3 nM

## Cc1nc(C)c(COC(=O)CCCCCCC(=O)OC2OC3OC4(C)CCC5C(C)CCC(C2C)C35OO4)nc1C [Compound Ia-7, (3R, 5aS, 6R, 9R, 10R, 12R, 12aR)-3,6,9-trimethyldecahydro-12h-3, 12-epoxy [1, 2] dioxopyran [4,3-i] isobenzopyran-10-yl ((3,5,6-trimethylpyrazine-2-yl)methyl) suberate]
[7]
  IC50: 50.7 nM
